Laboratory results from ChEMBL document CHEMBL1135611, “Thrombin inhibition by novel benzamidine derivatives: a free-energy perturbation study” (J Med Chem, 2002).
pKi: −log10 of the molar value.

Target: Prothrombin (Homo sapiens, UniProt P00734)
Assay: Binding Affinity to Thrombin

In the case of `NC(N)c1ccc(CC(=O)C(=O)O)cc1`, the pKi was 6.21.
In the case of `NC(N)c1ccccc1`, the pKi was 6.52.
